Results taken from publication PMC6368337, “GluClR-mediated inhibitory postsynaptic currents reveal targets for ivermectin and potential mechanisms of ivermectin resistance” (PLoS Pathogens, 2019).

Columns and labels:
α GluClRs = assay: IPSC recording in HEK293-neuron heteroculture, α GluClRs; assay type: cell-based, H. contortus; conditions: HEK293-neuron co-culture, −70 mV
Protocol: (§1) cDNAs encoding the α (avr-14b) (pcDNA 3.1+) or β (pUNIV) GluClR subunits of H. contortus were nuclear injected into oocytes (NASCO, WI USA) or transfected into HEK293AD cells (CellBank Australia) using a calcium phosphate-DNA co-precipitate method. Synapse formation between neurons and HEK293 cells was promoted by co-transfecting neuroligin 2A or 1B and the cDNA encoding CD4 surface antigen was also added to the transfection mixture so as to identify transfected cells. The oocytes and HEK cells were used for experiments 2–3 days after the introduction of the cDNAs. All experiments were done at room temperature (22 ± 1°C).
Primary neuronal cultures were prepared from cortices of E18 rat embryos, (University of Queensland Biological Services), which were triturated and plated at 100,000 cells per 18-mm poly-D-lysine-coated coverslip in DMEM with 10% fetal bovine serum. After 24 h the entire medium was replaced with Neurobasal medium that included 2% B27 and 1% GlutaMAX supplements. After one week half of this medium was replaced and the neurons were allowed to grow in vitro for 3–5 weeks before introducing the transfected HEK293 cells. Recordings of synaptic currents were done in whole-cell configuration at ‐70 mV using an Axopatch 200B amplifier (Molecular Devices), filtered at 5 kHz and digitized at 20 kHz using Clampex (pClamp 10 suite, Molecular Devices) via a Digidata 1440A digitizer.

α (avr-14b) GluClRs = α (avr-14b) GluClRs (Haemonchus contortus, UniProt O46124); assay: Two-electrode voltage clamp in oocytes, α GluClRs; assay type: cell-based, H. contortus; conditions: for efficacy (maximal current normalised to saturating glutamate) compared to IVM: 30 nM, normalised to 5 mM glutamate
Protocol: as §1
(§2) Xenopus laevis oocytes were harvested by surgical incision. The oocytes were then defolliculated with 1.5 mg/ml collagenase for 2 hours. Free oocytes were rinsed with calcium-free OR-2 solution containing (in mM) 82.5 NaCl, 2 KCl, 1 MgCl2, 5 HEPES, pH 7.4 and mature stage V or VI oocytes were isolated for experiments. The DNAs coding for α and β subunits were nuclear injected into the oocytes using a Nanoliter 2000 microinjector (WPI Inc) at a ratio of (α:β), 1:0, 0:1, 1:1 and 1:50. The total amount of injected DNA in all combinations was 400 ng ml^−1, including the 1:50 (α:β) combination (8 ng of DNA encoding the α and 392 ng of DNA encoding β subunits). Injected oocytes were incubated in ND96 storage solution (in mM) 96 NaCl, 2 KCl, 1 MgCl2.6H2O, 1.8 CaCl2, 5 HEPES, 50 μg ml^−1 gentamicin, 2.5 sodium pyruvate, 0.5 theophylline, pH 7.4 at 16°C for 2–3 days before experiment.
(§3) For the two-electrode voltage clamp recordings, each oocyte was secured in a cell bath that was continually perfused with ND96 recording solution (ND96 storage solution without pyruvate, theophylline and gentamicin). […] The two microelectrodes contained 3 M KCl and had resistances of 0.2–2 MΩ. Recordings were done using Clampex 10.2 software (Molecular Devices) at a clamped voltage of −40 mV. Currents were low-pass filtered at 200 Hz, sampled at 2 kHz using a Gene Clamp 500B amplifier and digitised by a Digidata 1440A interface. The IVM (IVM B1a) concentration-response experiments were standardised by using an application protocol that consisted of applying increasing concentrations of IVM for, respectively, 3 min, 3 min, 3 min, 2 min, 1 min, 1 min and 0.5 min.
(§4) Group data were analysed in SigmaPlot 13.0 using one-way ANOVAs, where p < 0.05 was taken as the significance threshold and expressed as mean ± SEM. Tests for normally distributed data are built into the SigmaPlot software. Confocal images were captured and analysed with Zen 2012 SP2 (Zeiss) software. Oocyte concentration-response data were fit to a Hill equation to obtain an EC50 and Hill co-efficient for each oocyte recording. These parameters were then averaged across multiple oocyte experiments of the same type. Single channel recordings were analysed in QuB software. […] The selected critical times eliminated periods of receptor desensitisation while retaining singe receptor active periods. Mean active period duration and intra-activation open probability was estimated from each patch. Group means were obtained by averaging across multiple patches for each recording condition.

αβ (1:50) GluClRs = αβ (1:50) GluClRs (Haemonchus contortus, UniProt O46124+P91730); assay: Two-electrode voltage clamp in oocytes, αβ (1:50) GluClRs; assay type: cell-based, H. contortus; conditions: 30 nM; for efficacy (maximal current normalised to saturating glutamate) compared to IVM: normalised to 5 mM glutamate, αβ 1:50; for differential efficacy between α and αβ (1:50) GluClRs: α versus αβ (1:50)
Protocol: as §1, §2, §3, §4

[1] = system: Untransfected HEK293 cells; assay: Membrane partitioning, time-lapse fluorescence; conditions: 500 nM; for membrane accumulation time constant: change in membrane fluorescence over 30 min, exponential fit
Protocol: Two types of experiments were conducted with IVM-bdpy. The first was aimed at monitoring the time-course of membrane accumulation. Untransfected HEK293 cells were incubated in extracellular solution containing 500 nM IVM-bdpy and time-lapse images were taken over a period of 30 min (Fig 8A). The change in total membrane fluorescence averaged from 5 repeat experiments was then plotted against time and fitted to a standard exponential function (Fig 8B). In a control experiment, the corresponding accumulation rate was also determined for bdpy. To obtain the net membrane partitioning time-course for IVM-1, the data for the bdpy alone was subtracted from the data obtained for IVM-bdpy (Fig 8B). The time constants for the three plots were 6.5 min for the IVM-bdpy, 8.2 min for the bdpy fluorophore and 6.0 min for IVM-1. As the lipophilic properties of IVM and IVM-1 are similar (logPs of 5.4 and 5.1, respectively), we infer this analysis quantitatively reflects the membrane partitioning properties of IVM. […] It should be noted, however, that the IVM-bdpy experiment was done using a 100-fold higher concentration of drug in un-transfected cells and represents passive membrane accumulation, whereas the current plateau involved IVM binding to and activating receptors.
(§5) Membrane partitioning and FRAP experiments were performed on an LSM 710 inverted 2-photon confocal microscope equipped with a 40X water immersion objective lens (1.2 NA/280 μM WD/0.208 μM/pixel and a GFP/Alexa 488 filter set. Untransfected HEK293 cells at a confluency of 50–75% were plated onto 35-mm glass bottom dishes one day prior to experiments. The IVM-bdpy fluorophore was dissolved in 100% DMSO and stored at ‐20°C at a concentration of 24 mM.
(§6) A Mai Tai eHP 2-photon laser/760-1040 nm was used as an excitation source (power at 920 nm) for the FRAP experiments. The laser and bleaching power were set to 7% and 75% respectively. Membrane partitioning images were taken for 35 min at 0.5 Hz after replacing the cell medium (extracellular solution) with one containing the IVM-bdpy probe at a concentration of 500 nM. FRAP images were taken at a frequency of 0.5 Hz for 10 min after a 30 min equilibration period in 500 nM IVM-bdpy.

[2] = system: Untransfected HEK293 cells; assay: Fluorescence recovery after photobleaching (FRAP), lateral membrane diffusion
Protocol: The second experiment was aimed at determining the lateral membrane diffusion properties of IVM using the fluorescence recovery after photobleaching (FRAP) technique. After a 30-min equilibration time, 5 cells were monitored for fluorescence recovery within a bleached circular patch of membrane of 3.7 μm diameter (Fig 8C). Any bleaching and recovery of the surrounding area of the cell was measured, using a similar circular patch and used to correct the recovery rate of the membrane delineated by the bleached area. We also noted that the recovery reached 98 ± 2% of control. The time constant (τ) for recovery of 1.3 minutes was used to calculate the diffusion coefficient (D), using the radius (r) of the bleached patch, according to D = r^2/4τ. The calculated value of D was 1.1 x 10^−2 μm^2s^−1. Over the course of 1 s, the IVM-bdpy probe would traverse 0.2 μm along the membrane surface (lateral diffusion rate of 0.2 μms^−1). […] We infer that this slow lateral diffusion rate coupled to membrane partitioning are the major contributors to local increases of IVM around its target binding sites and the slow quasi-irreversible actions of IVM at GluClRs.
as §5, §6

αβ (1:50) GluClRs, sequence (O46124 entry or part of it): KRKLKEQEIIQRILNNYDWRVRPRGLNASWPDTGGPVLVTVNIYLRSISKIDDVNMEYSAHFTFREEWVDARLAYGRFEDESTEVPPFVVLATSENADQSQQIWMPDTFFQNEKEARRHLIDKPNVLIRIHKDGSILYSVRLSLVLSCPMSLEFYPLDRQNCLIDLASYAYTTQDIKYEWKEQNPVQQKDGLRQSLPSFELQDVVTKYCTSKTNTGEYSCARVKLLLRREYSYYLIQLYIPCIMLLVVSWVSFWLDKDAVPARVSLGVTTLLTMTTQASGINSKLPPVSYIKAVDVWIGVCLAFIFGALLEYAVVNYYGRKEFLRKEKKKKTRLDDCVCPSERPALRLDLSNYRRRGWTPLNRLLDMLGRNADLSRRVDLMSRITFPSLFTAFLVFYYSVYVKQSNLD
αβ (1:50) GluClRs, sequence (P91730 19-432): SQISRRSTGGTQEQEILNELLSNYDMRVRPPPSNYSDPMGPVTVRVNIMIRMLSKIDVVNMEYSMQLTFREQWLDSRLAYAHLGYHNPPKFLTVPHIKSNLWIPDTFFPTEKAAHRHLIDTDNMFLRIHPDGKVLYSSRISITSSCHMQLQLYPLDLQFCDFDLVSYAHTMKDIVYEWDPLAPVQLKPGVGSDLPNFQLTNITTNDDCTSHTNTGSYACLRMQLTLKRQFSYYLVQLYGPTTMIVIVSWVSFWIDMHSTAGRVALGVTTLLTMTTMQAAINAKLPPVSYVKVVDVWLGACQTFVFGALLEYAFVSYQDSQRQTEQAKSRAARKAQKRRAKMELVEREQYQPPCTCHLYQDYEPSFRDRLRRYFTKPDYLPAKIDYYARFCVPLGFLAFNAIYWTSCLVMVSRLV
α (avr-14b) GluClRs, sequence (O46124 entry or part of it): as the sequence (O46124 entry or part of it) above

| Compound | efficacy (maximal current normalised to saturating glutamate) compared to IVM (α (avr-14b) GluClRs) | efficacy (maximal current normalised to saturating glutamate) compared to IVM (αβ (1:50) GluClRs) | differential efficacy between α and αβ (1:50) GluClRs (αβ (1:50) GluClRs) | membrane accumulation time constant [1] [min] | other results |
| --- | --- | --- | --- | --- | --- |
| picrotoxin |  |  |  |  | effect on IPSCs (α GluClRs): blocked |
| CC[C@H](C)[C@H]1O[C@]2(CC[C@@H]1C)C[C@@H]1C[C@@H](C/C=C(\C)[C@@H](OCOC)[C@@H](C)/C=C/C=C3\CO[C@@H]4[C@H](O)C(C)=C[C@@H](C(=O)O1)[C@]34O)O2 [IVM-2] | restored efficacy | preservation of efficacy | abolished the differential sensitivity |  |  |
| CC[C@H](C)[C@H]1O[C@]2(CC[C@@H]1C)C[C@@H]1C[C@@H](C/C=C(\C)[C@@H](OCOC)[C@@H](C)/C=C/C=C3\CO[C@@H]4[C@@H](O)C(C)=C[C@@H](C(=O)O1)[C@]34O)O2 [IVM-3] | most marked reduction in potency | most marked reduction in potency | ablated the differential efficacy |  |  |
| CCC1=C(C)C2=C(c3ccc(OCc4cn(CCCC(=O)O[C@@H]5/C(C)=C/C[C@@H]6C[C@@H](C[C@]7(CC[C@H](C)[C@@H]([C@@H](C)CC)O7)O6)OC(=O)[C@@H]6C=C(C)[C@@H](O)[C@H]7OC/C(=C\C=C\[C@@H]5C)[C@]76O)nn4)cc3)c3c(C)c(CC)c(C)n3[B-](F)(F)[N+]2=C1C [IVM-bdpy] |  |  |  | 6.5 | potency relative to IVM (α (avr-14b) GluClRs; concentration-response, n = 6): reduced potency; activity at α GluClRs (α (avr-14b) GluClRs; oocyte current): active; time to saturate whole cell membranes [1]: about 18 minutes; FRAP recovery time constant (τ) ([2]; 500 nM, 30 min equilibration): 1.3 min; diffusion coefficient (D) ([2]; calculated by D = r^2/4τ): 1.1 x 10^−2 μm^2s^−1; lateral diffusion rate ([2]; in cell membrane): 0.2 μms^−1 |
| C#CCOc1ccc(C2=C3C(C)=C(CC)C(C)=[N+]3[B-](F)(F)n3c(C)c(CC)c(C)c32)cc1 [bdpy] |  |  |  | 8.2 |  |
